The test system of one data set is PDE4. Briefly: Inhibition of PDE4 activity (method of Bauer and Schwabe, adapted to microtitre plates). The class given is biochemical. The protocol:
Inhibition f PDE 4 Activity
The activity test was carried out according to the method of Bauer and Schwabe, which was adapted to microtitre plates (Naunyn-Schmiederberg's Arch. Pharmacol. 311, 193-198. 1980). In this test, the PDE reaction is carried out in the first step. In a second step, the resultant 5′-nucleotide is cleaved to the uncharged nucleoside by a snake venom 5′-nucleotidase from Crotalus Atrox. In the third step, the nucleoside is separated from the remaining charged substrate on ion exchange columns. The columns are eluted directly into minivials using 2 ml of 30 mM ammonium formate (pH 6.0), to which a further 2 ml or scintillation fluid is added for counting.
The inhibitory values determined for the compounds according to the invention follow from the following table A, in which the numbers of the compounds correspond to the numbers of the examples.

For the compound `CCOc1ccc(C2=NN(c3ccc(S(=O)(=O)N4CCOCC4)cc3)C(=O)C3CC=CCC23)cc1OCC` (stereo not drawn) [compound 4, (cis)-4-(3,4-Diethoxyphenyl)-2-[4-(N-morpholinosulfonyl)phenyl]-4a,5,8,8a-tetrahydro-2H-phthalazin-1-one], the “Inhibition of PDE4 activity [measured as −logIC50 (mol/l)]” value with PDE4 worked out at 9.22.

Take `CCOc1ccc(C2=NN(c3ccc(C(=O)N4CCOCC4)cc3)C(=O)C3CC=CCC23)cc1OCC` (stereo not drawn) [compound 1, (cis)-4-(3,4-Diethoxyphenyl)-2-[4-(N-morpholinocarbonyl)phenyl]-4a,5,8,8a-tetrahydro-2H-phthalazin-1-one]: the melting point was 144 to 145 °C. In addition, in the data set on PDE4, the “Inhibition of PDE4 activity [measured as −logIC50 (mol/l)]” value came to 7.99.

Take `CCOc1ccc(C2=NN(c3ccc(C(=O)N4CCSCC4)cc3)C(=O)[C@H]3CC=CC[C@@H]23)cc1OCC` (relative stereo) [compound 3, (cis)-4-(3,4-Diethoxyphenyl)-2-[4-(1-thiomorpholin-4-ylcarbonyl)phenyl]-4a,5,8,8a-tetrahydro-2H-phthalazin-1-one]: the melting point was in the range of 104 to 106 °C. In the data set with PDE4, the “Inhibition of PDE4 activity [measured as −logIC50 (mol/l)]” value was 7.82.

In the case of `COc1ccc(C2=NN(c3ccc(C(=O)N4CCOCC4)cc3)C(=O)C3CC=CCC23)c2c1OC(C)(C)C2` (stereo not drawn) [compound 2, (cis)-4-(2,3-Dihydro-2,2-dimethyl-7-methoxybenzofuran-4-yl)-2-[4-(N-morpholinocarbonyl)-phenyl]-4a,5,8,8a-tetrahydro-2H-phthalazin-1-one], the “Inhibition of PDE4 activity [measured as −logIC50 (mol/l)]” value in the data set with PDE4 is 8.77.

With `CCOc1ccc(C2=NN(c3ccc(C(=O)N4CCS(=O)(=O)CC4)cc3)C(=O)[C@H]3CC=CC[C@@H]23)cc1OCC` (relative stereo) [compound 6, (cis)-4-(3,4-Diethoxyphenyl)-2-[4-(1,1-dioxothiomorpholin-4-ylcarbonyl)phenyl]-4a,5,8,8a-tetrahydro-2H-phthalazin-1-one], the melting point was 186 to 187 °C. Further, the “Inhibition of PDE4 activity [measured as −logIC50 (mol/l)]” value in the data set on PDE4 came out at 7.81.

With `COc1ccc(C2=NN(c3ccc(S(=O)(=O)N4CCOCC4)cc3)C(=O)C3CC=CCC23)c2c1OC(C)(C)C2` (stereo not drawn) [compound 5, (cis)-4-(2,3-Dihydro-2,2-dimethyl-7-methoxybenzofuran-4-yl)-2-[4(N-morpholinosulfonyl)phenyl]-4a,5,8,8a-tetrahydro-2H-phthalazin-1-one], the “Inhibition of PDE4 activity [measured as −logIC50 (mol/l)]” value with PDE4 is recorded as 9.71.

These data come from patent US6756371B1, “Phthalazinone derivatives as PDE4 inhibitors” (Altana Pharma AG, priority 1999, dated 2004).
